{"source": "patent US10398671B2", "about": "“Fatty acid formulations and methods of use thereof” (Children's Hospital & Research Center at Oakland, priority 2007, dated 2019)", "key": {"[1]": {"system": "global apraxia/dyspraxia", "experiment": "Case study Patient A: clinical observation of speech, coordination, tone and sensory symptoms", "format": "in vivo, human", "conditions": "for speech clarity and energy level/stamina: coenzyme Q 100 mg/day, vitamin C 250 mg/day and alpha-lipoic acid 300 mg/day added together to regimen, within 1 week"}, "[2]": {"experiment": "Plasma alpha-d-tocopherol level, Patient A", "format": "in vivo, human", "conditions": "despite high dose supplementation", "protocol": "The vit E dose was increased over several weeks and is now in the range recommended for neurological complications of vit E deficiency (100-200 mg/kg/day alpha-d-tocopherol). Sokol et al. Gastroenterology 1993; 104(6):1727-35. […] All speech therapy and occupational therapy has been phased out due to this rapid and remarkable improvement within 5 months of beginning therapy, at which point it was felt by all evaluators to no longer be necessary."}, "[3]": {"conditions": "cited from earlier work"}}, "data": [{"molecule": "COC1=C(OC)C(=O)C(C/C=C(\\C)CC/C=C(\\C)CC/C=C(\\C)CC/C=C(\\C)CC/C=C(\\C)CC/C=C(\\C)CC/C=C(\\C)CC/C=C(\\C)CC/C=C(\\C)CCC=C(C)C)=C(C)C1=O", "note": "[coenzyme Q, 2,3-dimethoxy-5-methyl-6-polyprenyl-1,4-benzoquinone]", "values": [{"measurement": "speech clarity and energy level/stamina", "setting": "[1]", "value": "increased clarity of speech and improved energy level/stamina"}]}, {"molecule": "O=C1O[C@H]([C@@H](O)CO)C(O)=C1O", "note": "[vitamin C, ascorbic acid]", "values": [{"measurement": "speech clarity and energy level/stamina", "setting": "[1]", "value": "increased clarity of speech and improved energy level/stamina"}]}, {"molecule": "C[C@]12C=CC(=O)C=C1CC[C@@H]1[C@@H]2C(=O)C[C@@]2(C)[C@H]1CC[C@]2(O)C(=O)CO", "note": "[prednisone]", "values": [{"measurement": "speech, coordination and behavior", "setting": "[1]; oral, used for allergic reactions and asthma exacerbations triggered by food allergy", "value": "improvement in speech, coordination and behavior"}]}, {"molecule": "Cc1c(C)c2c(c(C)c1O)CC[C@@](C)(CCC[C@H](C)CCC[C@H](C)CCCC(C)C)O2", "note": "[alpha-d-tocopherol]", "values": [{"measurement": "change of plasma levels of alpha-d-tocopherol", "setting": "[2]", "value": "did not change"}]}, {"molecule": "O=C(O)CCCCC1CCSS1", "note": "(stereo not drawn) [lipoic acid, α-lipoic acid]", "values": [{"measurement": "pKa", "setting": "[3]", "value": 4.7}, {"measurement": "speech clarity and energy level/stamina", "setting": "[1]", "value": "increased clarity of speech and improved energy level/stamina"}]}, {"molecule": "C[C@@H]1[C@H](O)[C@@H](C)/C=C/C=C/CC/C=C/C=C/C=C/C=C/C(O[C@H]2O[C@H](C)[C@@H](O)[C@H](N)[C@@H]2O)CC2O[C@](O)(CC(O)C(O)CCC(O)CC(O)CC(O)CC(=O)O[C@H]1C)CC(O)C2C(=O)O", "note": "(some centres unmarked) [nystatin]", "values": [{"measurement": "neurologic benefits", "setting": "[1]", "value": "Further neurologic benefits"}]}, {"molecule": "Polyenylphosphatidylcholine", "values": [{"measurement": "stearrhea (fat absorption)", "setting": "[1]; 3 grams/day, within a week of supplementation", "value": "decreased in stearrhea"}]}]}
